Source: patent US20200113852A1, “METHODS OF PATIENT SELECTION AND TREATING TRXR- OR PRDX-OVEREXPRESSED CANCERS” (TRIACT THERAPEUTICS, INC., priority 2017, published 2020)
Read-outs that look alike come from different tables or passages of the source.

Experiments:
[1] = tested on: metastatic triple negative breast cancer; experiment: Phase 2 and Phase 3 mTNBC trials, 15-gene expression signature analysis (PFS, OS, ORR); type: in vivo, human
From the text: Formalin-fixed, paraffin-embedded (FFPE) archival samples from biopsy or surgery at original diagnosis of breast cancer were profiled on the exon-based Affymetrix Hugene1.0ST microarrays using an RNA extraction protocol adapted to the short fragment lengths resulting from RNA degradation in FFPE samples. It was considered that a corpus of n=210 patients for whom clinical outcome data was available in the form of PFS time and associated censoring statuses.
The raw gene expression data from profiling of an initial n=240 FFPE preserved samples, in the form of individual Affymetrix CEL files, was processed using […] estimation. Quality control based on average array brightness excluded 30 outlier scans, and the n=210 remaining profiles were then normalized to each other using quantile normalization. Affymetrix probesets were mapped to genes, in a manner where multiple probesets mapping into the same gene were resolved by assigning the highest intensity to the corresponding gene, this procedure reducing the set of 33,297 probe sets to 20,756 mapped genes. The data was then log 2-transformed, and standardized by mean-subtraction and division by the standard deviation across all 210 samples, for each gene separately. Finally, the data matrix was subsetted to the intersection of the oxidative response set of 102 genes with the set of genes represented on the Hugene1.0ST arrays, resulting in profiles for p=82 genes across all n=210 samples.
A multivariate Cox model using supervised principal components was used to model progression free survival times regressed on gene expression data. […]
In Eq.(1) the variables: x1, l=1, . . . , K, denote projections onto the first K principal components of the data matrix of gene expression vectors, after preliminary reduction to a subset of mtop genes out of the original set of 82, where mtop is a variable parameter, 1≤mtop≤82. For a given mtop, the subset is determined by univariate feature selection (generating a Cox model for each gene independently and selecting the mtop genes with the smallest interaction-term P-values). […]

TrxR in MDA-MB-453 cells = experiment: Endogenous TrxR activity in cell lysates (DTNB reduction assay); type: cell-based, human; conditions: MDA-MB-453 cells without GSH depletion
[2] = Phase II clinical trial GBM, toxicity and tolerability
ΔSec human TrxR1 = molecular target: T1, ΔSec human TrxR1 (Homo sapiens, UniProt Q16881); experiment: Electron paramagnetic resonance, DEPMPO spin trapping; type: biochemical; conditions: ΔSec-TrxR1, absence of auranofin
T1 construct: purchased Abnova

MDA-MB-231 cells = experiment: ROS production (CellROXOrange); type: cell-based, human; conditions: GSH-depleted MDA-MB-231, 100 μM, 4 h
MDA-MB-453 cells = experiment: Cytotoxicity assay (WST-1 cell viability); conditions: for IC50: Homo sapiens
Experimental: (§1) Cell viability following drug treatments was assessed using WST-1 cell proliferation assay (Roche) Briefly, cells were plated into 96-well plates with 8,000 (HCT116) or 20,000 (MDA-MB-453) cells per well and allowed to attach overnight. Cells were then preincubated for 5 h in the presence or absence of 1 mM BSO. […] After 3 h of incubation at 37° C., the amount of formazan dye was quantified by measuring the optical density at 450 nm with a scanning multiwell spectrophotometer (PerkinElmer).
as §1, with “(Roche).” for “(Roche)”

T1 sequence (Q16881 151-647, stated change not applied): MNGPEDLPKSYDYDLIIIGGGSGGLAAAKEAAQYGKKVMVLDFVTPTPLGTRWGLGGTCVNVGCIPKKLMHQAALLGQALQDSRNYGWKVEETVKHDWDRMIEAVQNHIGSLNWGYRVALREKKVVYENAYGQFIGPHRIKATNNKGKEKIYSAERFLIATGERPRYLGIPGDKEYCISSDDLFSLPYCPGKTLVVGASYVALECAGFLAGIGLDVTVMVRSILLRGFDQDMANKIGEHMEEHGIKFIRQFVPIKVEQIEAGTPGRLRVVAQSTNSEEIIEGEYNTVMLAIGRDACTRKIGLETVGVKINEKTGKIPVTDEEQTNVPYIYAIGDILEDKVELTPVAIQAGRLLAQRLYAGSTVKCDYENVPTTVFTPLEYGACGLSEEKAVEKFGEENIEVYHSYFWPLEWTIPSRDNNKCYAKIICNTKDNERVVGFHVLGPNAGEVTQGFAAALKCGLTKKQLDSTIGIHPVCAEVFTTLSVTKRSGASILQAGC

With NC(=O)c1ccc(I)c([N+](=O)[O-])c1 [Iniparib, 4-iodo-3-nitrobenzamide] the median progression-free survival ([1]; biomarker-selected (sensitive) population n=53) was 5.9 months, the “objective response rate (responders)” value ([1]; resistant group) was 34% and the “objective response rate (responders)” value ([1]; sensitive group n=53) was 48%. The TrxR reductase activity (TrxR in MDA-MB-453 cells) was “reductase activity inhibition”, the Acute kidney injury ([2]; Grade 3) was 1 (1) N (%) and the Anemia ([2]; Grade 3) was 2 (2) N (%). The Atrial fibrillation ([2]; Grade 3) was 1 (1) N (%), the Bronchial infection ([2]; Grade 3) was 1 (1) N (%) and the Cognitive disturbance ([2]; Grade 3) was 1 (1) N (%). For the same compound, the Confusion ([2]; Grade 3) was 1 (1) N (%), the Dehydration ([2]; Grade 3) was 1 (1) N (%) and the Dizziness ([2]; Grade 3) was 1 (1) N (%). For the same compound, the Dysphasia ([2]; Grade 3) was 1 (1) N (%), the Fatigue ([2]; Grade 3) was 4 (5) N (%) and the Generalized muscle weakness ([2]; Grade 3) was 2 (2) N (%). The Headache ([2]; Grade 3) was 1 (1) N (%), the Hyperkalemia ([2]; Grade 3) was 1 (1) N (%) and the Hypokalemia ([2]; Grade 3) was 1 (1) N (%). The Hypotension ([2]; Grade 3) was 1 (1) N (%), the Hypoxia ([2]; Grade 3) was 1 (1) N (%) and the Lymphocyte count decreased ([2]; Grade 3) was 4 (5) N (%). The Nausea ([2]; Grade 3) was 2 (2) N (%), the “Neutrophil Count Decreased” value ([2]; Grade 3) was 3 (4) N (%) and the “Platelet Count Decreased” value ([2]; Grade 3) was 4 (5) N (%). The Rash maculo-papular ([2]; Grade 3) was 3 (4) N (%), the “Skin and subcutaneous tissue disorders” value ([2]; Grade 3) was 1 (1) N (%) and the Vomiting ([2]; Grade 3) was 1 (1) N (%). For the same compound, the “White Blood Cell Decreased” value ([2]; Grade 3) was 5 (6) N (%), the Alanine aminotransferase increased ([2]; Grade 4) was 1 (1) N (%) and the Aspartate aminotransferase increased ([2]; Grade 4) was 1 (1) N (%). For the same compound, the Flushing ([2]; Grade 4) was 1 (1) N (%), the Hypertension ([2]; Grade 4) was 1 (1) N (%) and the “Neutrophil Count Decreased” value ([2]; Grade 4) was 5 (6) N (%). For the same compound, the “Platelet Count Decreased” value ([2]; Grade 4) was 11 (13) N (%), the “White Blood Cell Decreased” value ([2]; Grade 4) was 3 (4) N (%) and the Acute kidney injury ([2]; Total) was 1 (1) N (%). The Alanine aminotransferase increased ([2]; Total) was 1 (1) N (%), the Anemia ([2]; Total) was 2 (2) N (%) and the Aspartate aminotransferase increased ([2]; Total) was 1 (1) N (%). The Atrial fibrillation ([2]; Total) was 1 (1) N (%), the Bronchial infection ([2]; Total) was 1 (1) N (%) and the Cognitive disturbance ([2]; Total) was 1 (1) N (%). For the same compound, the Confusion ([2]; Total) was 1 (1) N (%), the Dehydration ([2]; Total) was 1 (1) N (%) and the Dizziness ([2]; Total) was 1 (1) N (%). For the same compound, the Dysphasia ([2]; Total) was 1 (1) N (%), the Fatigue ([2]; Total) was 4 (5) N (%) and the Flushing ([2]; Total) was 1 (1) N (%). For the same compound, the Generalized muscle weakness ([2]; Total) was 2 (2) N (%), the Headache ([2]; Total) was 1 (1) N (%) and the Hyperkalemia ([2]; Total) was 1 (1) N (%). The Hypertension ([2]; Total) was 1 (1) N (%), the Hypokalemia ([2]; Total) was 1 (1) N (%) and the Hypotension ([2]; Total) was 1 (1) N (%). For the same compound, the Hypoxia ([2]; Total) was 1 (1) N (%), the Lymphocyte count decreased ([2]; Total) was 4 (5) N (%) and the Nausea ([2]; Total) was 2 (2) N (%). The “Neutrophil Count Decreased” value ([2]; Total) was 8 (10) N (%), the “Platelet Count Decreased” value ([2]; Total) was 15 (18) N (%) and the Rash maculo-papular ([2]; Total) was 3 (4) N (%). For the same compound, the “Skin and subcutaneous tissue disorders” value ([2]; Total) was 1 (1) N (%), the Vomiting ([2]; Total) was 1 (1) N (%) and the “White Blood Cell Decreased” value ([2]; Total) was 8 (10) N (%). The well tolerated dose ([2]; with adjuvant TMZ) was 17.2 mg/kg weekly, the well tolerated dose ([2]; with radiation and TMZ) was 16 mg/kg weekly and the “DEPMPO/HOO• adduct signal” value (ΔSec human TrxR1) was “increase”. The “DEPMPO/HO• adduct signal” value (ΔSec human TrxR1) was “modest increase”, the ROS (MDA-MB-231 cells) was “accumulation of ROS” and the IC50 (MDA-MB-453 cells; MDA-MB-453, read-out: IC50 (cytotoxicity), MDA-MB-453, GSH depletion (Example 2)) was 16.2 µM. It also gave an IC50 (MDA-MB-453 cells; MDA-MB-453, read-out: IC50 (cytotoxicity), MDA-MB-453, absence of BSO (Example 2)) of 85 µM, an IC50 (MDA-MB-453 cells; MDA-MB-453, read-out: IC50 (cytotoxicity), MDA-MB-453 after GSH depletion with BSO (Example 1)) of 17.8 ± 2.9 µM and an IC50 (MDA-MB-453 cells; MDA-MB-453, read-out: IC50 (cytotoxicity), MDA-MB-453 without BSO pre-treatment, 48 h (Example 1)) of 84 ± 6.5 µM. For the same compound, the “augmentation of cytotoxicity by GSH depletion” value (MDA-MB-453 cells; MDA-MB-453, BSO vs no BSO) was 4 fold.
